In patent US4840954A, “6,7-disubstituted 1-cycloproply-1,4-dihydro-4-oxo-1,8-naphthyridine-3-carboxylic acids” (Bayer Aktiengesellschaft, priority 1985, dated 1989):
Values after ≈ are worked out from the molar mass of the structure shown.

Key:
Format in all cases: cell-based
Pseudomonas W. = assay: MIC, agar dilution test, Pseudomonas W.; conditions: agar dilution test / Isosensitest medium
Excerpt: (§1) As a comparison, the corresponding MIC values of 1-ethyl-6-fluoro-1,4-dihydro-4-oxo-7-(1-piperazinyl)-1,8-naphthyridine-3-carboxylic acid (AT 2266, enoxacin), which is known from European Patent Application 9,425, Japanese Patent Applications 81/45473 [C.A. 95, 115 597 (1981)] and 81/46811 [C.A. 95, 121 142 (1981)], from J. Med. Chem. 27, 292 (1984) or from J. Heterocycl.
(§2) Agar dilution test / Isosensitest medium

Staphyloc. 1756 = assay: MIC, agar dilution test, Staphyloc. 1756; conditions: agar dilution test / Isosensitest medium
Excerpt: as §1, §2

Serratia 16040 = assay: MIC, agar dilution test, Serratia 16040; conditions: agar dilution test / Isosensitest medium
Excerpt: as §1, §2

E.coli 4418 = assay: MIC, agar dilution test, E.coli 4418; conditions: Escherichia coli, agar dilution test / Isosensitest medium
Excerpt: as §1, §2

Klebsiella 6179 = assay: MIC, agar dilution test, Klebsiella 6179; conditions: agar dilution test / Isosensitest medium
Excerpt: as §1, §2

E.coli Neum. = assay: MIC, agar dilution test, E.coli Neum.; conditions: Escherichia coli, agar dilution test / Isosensitest medium
Excerpt: as §1, §2

Providencia 12012 = assay: MIC, agar dilution test, Providencia 12012; conditions: agar dilution test / Isosensitest medium
Excerpt: as §1, §2

Klebsiella 63 = assay: MIC, agar dilution test, Klebsiella 63; conditions: agar dilution test / Isosensitest medium
Excerpt: as §1, §2

Proteus mir. 8175 = assay: MIC, agar dilution test, Proteus mir. 8175; conditions: agar dilution test / Isosensitest medium
Excerpt: as §1, §2

E.Coli 455/7 = assay: MIC, agar dilution test, E.Coli 455/7; conditions: Escherichia coli, agar dilution test / Isosensitest medium
Excerpt: as §1, §2

Proteus vulg. 1017 = assay: MIC, agar dilution test, Proteus vulg. 1017; conditions: agar dilution test / Isosensitest medium
Excerpt: as §1, §2

Proteus morg. 11006 = assay: MIC, agar dilution test, Proteus morg. 11006; conditions: agar dilution test / Isosensitest medium
Excerpt: as §1, §2

Staphyloc. 133 = assay: MIC, agar dilution test, Staphyloc. 133; conditions: agar dilution test / Isosensitest medium
Excerpt: as §1, §2

Row | MIC (Pseudomonas W.) [µg/mL] | MIC (Staphyloc. 1756) [µg/mL] | MIC (Serratia 16040) [µg/mL] | MIC (E.coli 4418) [µg/mL] | MIC (Klebsiella 6179) [µg/mL] | MIC (E.coli Neum.) [µg/mL] | MIC (Providencia 12012) [µg/mL] | MIC (Klebsiella 63) [µg/mL] | MIC (Proteus mir. 8175) [µg/mL] | MIC (E.Coli 455/7) [µg/mL] | MIC (Proteus vulg. 1017) [µg/mL] | MIC (Proteus morg. 11006) [µg/mL] | MIC (Staphyloc. 133) [µg/mL] | Compound
1 | 1 (≈ 2.89 µM) | 0.5 (≈ 1.44 µM) | 8 (≈ 23.1 µM) | 0.03 (≈ 0.0866 µM) | 0.125 (≈ 0.361 µM) | ≤ 0.015 | 0.125 (≈ 0.361 µM) | ≤ 0.015 | 0.25 (≈ 0.722 µM) | 8 (≈ 23.1 µM) | 0.125 (≈ 0.361 µM) | 0.03 (≈ 0.0866 µM) | 0.5 (≈ 1.44 µM) | CC1CN(c2nc3c(cc2F)c(=O)c(C(=O)O)cn3C2CC2)CCN1 (stereo not shown) [Example 2, 1-Cyclopropyl-6-fluoro-1,4-dihydro-7-(3-methyl-1-piperazinyl)-4-oxo-1,8-naphthyridine-3-carboxlyic acid]
2 | 0.125 (≈ 0.376 µM) | 0.5 (≈ 1.5 µM) | 8 (≈ 24.1 µM) | 0.03 (≈ 0.0903 µM) | 0.125 (≈ 0.376 µM) | ≤ 0.015 | 0.03 (≈ 0.0903 µM) | 0.03 (≈ 0.0903 µM) | 0.125 (≈ 0.376 µM) | 4 (≈ 12 µM) | 0.06 (≈ 0.181 µM) | 0.06 (≈ 0.181 µM) | 0.5 (≈ 1.5 µM) | O=C(O)c1cn(C2CC2)c2nc(N3CCNCC3)c(F)cc2c1=O [Example 1, 1-Cyclopropyl-6-fluoro-1,4-dihydro-4-oxo-7-(1-piperazinyl)-1,8-naphthyridine-3-carboxylic acid]
3 | 1 | 0.5 | 8 | 0.06 | 0.03 | ≤ 0.015 | 0.06 | ≤ 0.015 | 0.25 | 8 | 0.125 | 0.06 | 0.5 | CN1CCN(c2nc3c(cc2F)c(=O)c(C(=O)O)cn3C2CC2)CC1.Cl [Example 3, 1-Cyclopropyl-6-fluoro-1,4-dihydro-7-(4-methyl-1-piperazinyl)-4-oxo-1,8-naphthyridine-3-carboxylic acid hydrochloride]
4 | 2 (≈ 6.24 µM) | 1 (≈ 3.12 µM) | 32 (≈ 99.9 µM) | 0.25 (≈ 0.78 µM) | 2 (≈ 6.24 µM) | 0.06 (≈ 0.187 µM) | 0.25 (≈ 0.78 µM) | 0.5 (≈ 1.56 µM) | 0.25 (≈ 0.78 µM) | 16 (≈ 49.9 µM) | 0.125 (≈ 0.39 µM) | 0.125 (≈ 0.39 µM) | 1 (≈ 3.12 µM) | CCn1cc(C(=O)O)c(=O)c2cc(F)c(N3CCNCC3)nc21 [Enoxacin, 1-ethyl-6-fluoro-1,4-dihydro-4-oxo-7-(1-piperazinyl)-1,8-naphthyridine-3-carboxylic acid, reference compound]
